Values quoted from earlier work, collected in patent US20060168671A1, “Injection of caprine sperm factor (cSF), phospholipase C zeta (PLCzeta) and adenophostin A as alternative methods of activation during nuclear transfer in the caprine species” (priority 2005, published 2006).

How the values were obtained:
MII mouse eggs = settings: Jellerette et al., 2000
IP3R = settings: relative to IP3; Takahashi et al., 1994

## Nc1ncnc2c1ncn2[C@@H]1O[C@H](CO)[C@@H](O[C@H]2O[C@H](CO)[C@@H](OP(=O)(O)O)[C@H](OP(=O)(O)O)[C@H]2O)[C@H]1OP(=O)(O)O [Adenophostin A]
MII mouse eggs
  [Ca2+]i oscillations: induces fertilization-like oscillations
  activation rates: high activation rates
IP3R
  affinity to IP3R greater than IP3 itself: 10-100 fold
